According to patent US20110086853A1, “Therapeutic Compounds” (priority 2009, published 2011):

Molecular target: T1, Human CB1 receptor (Homo sapiens, UniProt P21554)
T1 construct: purchased Receptor Biology
Assay: hCB1 GTPγS binding
Assay type: biochemical
Details: maximal stimulated binding determined with 10 μM Win 55,212-2
Method: hCB1 and hCB2 GTPγS Binding
Human CB1 receptor from Receptor Biology (hCB1) or human CB2 receptor membranes (BioSignal) are thawed at 37° C., passed 3 times through a 25-gauge blunt-end needle and diluted in the GTPγS binding buffer (50 mM Hepes, 20 mM NaOH, 100 mM NaCl, 1 mM EDTA, 5 mM MgCl2, pH 7.4, 0.1% BSA). The EC50 and Emax of the compounds of the invention are evaluated from 10-point dose-response curves done in 300 μl with the appropriate amount of membrane protein and 100000-130000 dpm of GTPg^35S per well (0.11-0.14 nM). The basal and maximal stimulated binding is determined in absence and presence of 1 μM (hCB2) or 10 μM (hCB1) Win 55, 212-2 respectively. The membranes are pre-incubated for 5 minutes with 56.25 μM (hCB2) or 112.5 μM (hCB1) GDP prior to distribution in plates (15 μM (hCB2) or 30 μM (hCB1) GDP final). The plates are vortexed and incubated for 60 minutes at room temperature, filtered on Unifilters GF/B (presoaked in water) with the Tomtec or Packard harvester using 3 ml of wash buffer (50 mM Tris, 5 mM MgCl2, 50 mM NaCl, pH 7.0). The filters are dried for 1 hour at 55° C. The radioactivity (cpm) is counted in a TopCount (Packard) after adding 65 μl/well of MS-20 scintillation liquid. Antagonist reversal studies are done in the same way except that (a) an agonist dose-response curve is done in the presence of a constant concentration of antagonist, or (b) an antagonist dose-response curve is done in the presence of a constant concentration of agonist.

T1 sequence (P21554 whole entry): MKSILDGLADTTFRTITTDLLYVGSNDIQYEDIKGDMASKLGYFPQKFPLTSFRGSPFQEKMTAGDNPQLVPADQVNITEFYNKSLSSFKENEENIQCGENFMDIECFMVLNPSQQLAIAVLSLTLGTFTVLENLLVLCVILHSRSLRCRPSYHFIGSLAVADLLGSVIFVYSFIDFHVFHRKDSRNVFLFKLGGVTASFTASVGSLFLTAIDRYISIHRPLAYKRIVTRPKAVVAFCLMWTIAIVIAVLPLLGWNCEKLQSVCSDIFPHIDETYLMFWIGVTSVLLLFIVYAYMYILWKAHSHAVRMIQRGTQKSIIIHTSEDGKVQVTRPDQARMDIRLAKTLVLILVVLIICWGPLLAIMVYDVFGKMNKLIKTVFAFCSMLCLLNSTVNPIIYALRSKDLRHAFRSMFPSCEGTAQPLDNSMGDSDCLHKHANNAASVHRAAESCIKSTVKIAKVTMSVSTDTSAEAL

`CC(C)(C)c1nc2cc(S(=O)(=O)n3ccc(C(=O)NC4CC4)c3)ccc2n1CC1CCOCC1` [1-{[2-tert-Butyl-1-(tetrahydro-2H-pyran-4-ylmethyl)-1H-benzimidazol-5-yl]sulfonyl}-N-cyclopropyl-1H-pyrrole-3-carboxamide] showed an Emax of 142%.
`CC(C)NC(=O)c1cnn(S(=O)(=O)c2ccc3c(c2)nc(C(C)(C)C)n3CC2CCC(F)(F)CC2)c1` [1-({2-tert-Butyl-1-[(4,4-difluorocyclohexyl)methyl]-1H-benzimidazol-5-yl}sulfonyl)-N-isopropyl-1H-pyrazole-4-carboxamide] gave an Emax of 125%.
`CCNC(=O)[C@@H]1CN(S(=O)(=O)c2ccc3c(c2)nc(C(C)(C)C)n3CC2CCC(F)(F)CC2)CCO1` [(2S)-4-((2-tert-butyl-1-[(4,4-difluorocyclohexyl)methyl]-1H-benzimidazol-5-yl}sulfonyl)-N-ethylmorpholine-2-carboxamide] showed an Emax of 156%.
`CC(C)(C)c1nc2cc(S(=O)(=O)N3CCC[C@H](C(=O)NC4CC4)C3)ccc2n1CC1CCC(F)(F)CC1` [(3S)-1-({2-tert-Butyl-1-[(4,4-difluorocyclohexyl)methyl]-1H-benzimidazol-5-yl}sulfonyl)-N-cyclopropylpiperidine-3-carboxamide] gave an Emax of 136%.
In the case of `CNC(=O)c1cnn(S(=O)(=O)c2ccc3c(c2)nc(C(C)(C)C)n3CC2CCC(F)(F)CC2)c1` [1-({2-tert-Butyl-1-[(4,4-difluorocyclohexyl)methyl]-1H-benzimidazol-5-yl}sulfonyl)-N-methyl-1H-pyrazole-4-carboxamide], the Emax is reported as 118%.
Work on `CCCNC(=O)[C@H]1CCCN(S(=O)(=O)c2ccc3c(c2)nc(C(C)(C)C)n3CC2CCC(F)(F)CC2)C1` [(3S)-1-({2-tert-Butyl-1-[(4,4-difluorocyclohexyl)methyl]-1H-benzimidazol-5-yl}sulfonyl)-N-propylpiperidine-3-carboxamide] yielded an Emax of 134%.
Molecule `CC(C)(C)c1nc2cc(S(=O)(=O)N3CCOC(C(=O)NC4CC4)C3)ccc2n1CC1CCC(F)(F)CC1` (centres unmarked) [4-({2-tert-Butyl-1-[(4,4-difluorocyclohexyl)methyl]-1H-benzimidazol-5-yl}sulfonyl)-N-cyclopropylmorpholine-2-carboxamide] has an Emax of 120%.
Work on `CCNC(=O)c1cnn(S(=O)(=O)c2ccc3c(c2)nc(C(C)(C)C)n3CC2CCOCC2)c1` [Example 27, 1-{[2-tert-Butyl-1-(tetrahydro-2H-pyran-4-ylmethyl)-1H-benzimidazol-5-yl]sulfonyl}-N-ethyl-1H-pyrazole-4-carboxamide] yielded an Emax of 127%.
Work on `CC(C)(C)c1nc2cc(S(=O)(=O)n3cc(C(=O)NC4CC4)cn3)ccc2n1CC1CCC(F)(F)CC1` [1-({2-tert-Butyl-1-[(4,4-difluorocyclohexyl)methyl]-1H-benzimidazol-5-yl}sulfonyl)-N-cyclopropyl-1H-pyrazole-4-carboxamide] yielded an Emax of 122%.
Work on `CCNC(=O)c1ccn(S(=O)(=O)c2ccc3c(c2)nc(C(C)(C)C)n3CC2CCOCC2)c1` [1-{[2-tert-butyl-1-(tetrahydro-2H-pyran-4-ylmethyl)-1H-benzimidazol-5-yl]sulfonyl}-N-ethyl-1H-pyrrole-3-carboxamide] yielded an Emax of 138%.
With `CC(F)(F)c1nc2cc(S(=O)(=O)n3ccc(C(=O)NC4CC4)c3)ccc2n1CC1CCOCC1` [N-Cyclopropyl-1-{[2-(1,1-difluoroethyl)-1-(tetrahydro-2H-pyran-4-ylmethyl)-1H-benzimidazol-5-yl]sulfonyl}-1H-pyrrole-3-carboxamide] the Emax was 119%.
